# Data taken from patent publication US20060172941A1, “Anti-angiogenic peptides and methods of use thereof” (priority 2004, published 2006).
# “Also recorded” adds a separate entry of the source. Where no end group is shown, it is not given here. [ ]: non-standard residue; d: D form.
# How the values were obtained:
# B16-F1 melanoma cells = assay: Subcutaneous B16 melanoma tumor growth in vivo; design: species or system mouse; conditions: 20 mg/kg daily IP; for Inhibition of tumor growth: vs untreated controls, FIG. 12 and 14
# Experimental: Because of the importance of the angiogenic process for tumorigenesis, miniproteins as described herein, were hypothesized to show good anti-tumor activity. The peptides of the invention were tested in an in vivo model of anti-tumor activity. This model compares the growth of subcutaneous B16 melanoma tumor in vivo either untreated or treated with various amount of miniproteins described in this application. This model is widely accepted in the art as a model to test the anti-tumor activity of compounds that inhibit tumor growth because they have anti-angiogenic activity.
# Male C57BL/6 mice were obtained with a mean body weight of 20±2 g. Mouse B16-F1 melanoma cells were implanted subcutaneously (5×10^5 cell per animal). Peptides (formulated in water) were administered ip daily at the amount indicated starting the day after cells injection. In general, tumors became palpable around 9 days after injection of cells. Tumor were then measured every 2 days.
# [1] = Heparin binding activity, Hi Trap Heparin HP column, NaCl step elution; conditions: for fraction number: 500 μl fractions of heparin column elution; for [NaCl] for elution: heparin column
# Text: Liquid chromatography was used to determine the relative levels of heparin binding activity of the individual heparin binding domains and of the anti-angiogenic miniproteins that contains them. In this assay, the strength of the heparin binding activity is proportional to the amount of NaCl that is required to elute the peptide bound to the heparin column. Peptides with low binding activity are eluted with lower NaCl concentration, whereas higher concentrations of NaCl are required for peptides with higher binding activity.
# Hi Trap Heparin HP column (1 ml, Amersham Biosciences) was equilibrated with 10 column volumes (CV) of equilibration (EQ) buffer=10 mM NaH2PO4 pH 7. All buffers were loaded onto columns via syringes. 500 μl fractions are collected (flow rate=1 ml/minute). 500 μg of peptide (1 mg/ml, resuspended in EQ buffer) was added to each column and the flow through was collected for analysis. The columns were then washed with 3 CV of EQ buffer. Peptides are then eluted with a step gradient of 500, 625, 750, 875 mM NaCl in EQ buffer, 2 CV per each step. A final step of 3 CV of 1000 mM NaCl in EQ buffer was collected in 500 μl fractions. The A210 nm was measured using EQ and elution buffers as blanks.
# [2] = system: Human Umbilical Vein Endothelial Cells; assay: bFGF-mediated survival/proliferation of human umbilical vein endothelial cells (WST1); assay type: cell-based; conditions: FIG. 6, 9, 10, 17
# Experimental: The anti-angiogenic activities of the peptides were tested by measuring the level of inhibition of VEGF and bFGF mediated survival/proliferation of Bovine Retinal Endothelial Cells (BRE), Human Dermal Microvasculature Endothelial Cells, and Human Umbilical Vein Endothelial Cells, all of which are standard cell lines used to test anti-angiogenic compounds.
# Human umbilical cord endothelial (HUVEC) cells were maintained in Cambrex EGM-2MV media. On day one, cells were starved overnight in 1% FBS in M200 media (Cascade Biologicals). The morning after, the media were replaced with serum-free media (control) or media containing 25 ng/ml of human VEGF165 and the various peptides to final concentrations as described.
# In all cases, after 72 hours incubation, the amount of live cells in each well was measured with the WST1 assay (Roche).
# [3] = step gradient in 10 mM NaH2PO4 pH 7
sequence,measurement,setting,value
"ATSLPPHSSQSPGGGPPAARGRRAARGRR (listed as Homo sapiens) [ST100,062]",P (ANOVA) of tumor growth inhibition,B16-F1 melanoma cells; FIG. 12,> 0.05
same,Inhibition of tumor growth,B16-F1 melanoma cells,clearly inhibit tumor growth
"RRGRRRGRRRGRRRGKK (listed as Homo sapiens) [ST100,089]",heparin binding activity (comparison in words),[1],even greater increase in heparin binding
same,fraction number,[1],34-35
same,[NaCl] for elution,[1]; unit given as M,1300 mM
"RAAKKRARAAKKRARAAKKRLGYVVSDGRGDYP (listed as Homo sapiens) [ST100,079]",[NaCl] for elution,[1]; [3],1000 mM
"RRGRAAKKKRRGRAAKKK (listed as Homo sapiens) [ST100,082]",fraction number,[1],26-27
same,[NaCl] for elution,[1]; [3],1000 mM
"RKGRRKGRRKGRRKGRRKGKK ([dR][dK]G[dR][dR][dK]G[dR][dR][dK]G[dR][dR][dK]G[dR][dR][dK]G[dK][dK]; listed as Homo sapiens) [ST100,087]",heparin binding activity (comparison in words),[1],even greater increase in heparin binding
same,fraction number,[1],35-36
same,[NaCl] for elution,[1]; [3],1500 mM
"RKRAARARKRAARARKRAARR (listed as Homo sapiens) [ST100,083]",[NaCl] for elution,[1]; [3],1100 mM
"RRGRRRGRRRGRRRGKKPSQSSHPPLSTA ([dR][dR]G[dR][dR][dR]G[dR][dR][dR]G[dR][dR][dR]G[dK][dK][dP][dS][dQ][dS][dS][dH][dP][dP][dL][dS][dT][dA]; listed as Homo sapiens) [ST100,093]",Inhibition of bFGF-mediated survival,[2],more potent than similar peptides with weaker heparin binding domains
"RRGRAAKKKRRGRAAKKKPSQSSHPPLSTA (listed as Homo sapiens) [ST100,072]",Inhibition of bFGF-mediated survival,[2],more potent in blocking bFGF stimulation
same,fraction number,[1],26-27
same,[NaCl] for elution,[1]; [3],1000 mM
"RRGRAARRGRAARRGRAAKKKPSQSSHPPLSTA (listed as Homo sapiens) [ST100,073]",Inhibition of bFGF-mediated survival,[2],more potent in blocking bFGF stimulation; also recorded: the most active in inhibiting bFGF stimulation
same,Inhibition of tumor growth,B16-F1 melanoma cells,able to inhibit tumor growth
same,fraction number,[1],26-27
same,[NaCl] for elution,[1]; [3],1000 mM
"RKKAARARKKAARARKKAARRLGYVVSDGRGDYP (listed as Homo sapiens) [ST100,081]",fraction number,[1],26-27
same,[NaCl] for elution,[1]; [3],1000 mM
"RRGRARRGRARRGRARRGKK ([dR][dR]G[dR][dA][dR][dR]G[dR][dA][dR][dR]G[dR][dA][dR][dR]G[dK][dK]; listed as Homo sapiens) [ST100,085]",fraction number,[1],31-32
same,[NaCl] for elution,[1]; [3],1100 mM
"RRQRRRGRRRQRRRGKK (listed as Homo sapiens) [ST100,090]",heparin binding activity (comparison in words),[1],even greater increase in heparin binding
same,fraction number,[1],33-34
same,[NaCl] for elution,[1]; [3],1300 mM
